Assay results: PMC8536124 (International Journal of Molecular Sciences, 2021)
Marks after values point to notes of the source that are not given here.

Tests used:
chorioallantoic membrane = assay: HET-CAM irritation assay; details: for Irritation Score: 300 µL, 5 min, test compounds 1 µM, scale 0 to 21; for Type of Effect: Luepke scale
Source text: In this assay, the irritation potential may range from 0 to 21, with 0 being non-irritant and 21 being the most irritant. […] The irritation score was established according to Luepke scale: 0–0.9 indicates non-irritant, 1–4.9 indicates weakly irritant, 5–8.9 indicates moderately irritant, while 9–21 means strongly irritant (Table 6) [88, 89].
The in vivo Hen’s Egg Chorioallantoic Membrane Test (HET-CAM) assay determines a potential irritant effect on the vascular plexus of the chorioallantoic membrane [94]. The HET-CAM method was carried out following ICCVAM recommendations published in November 2016 in Appendix G and adapted to our conditions [88, 95, 96]. Thus, a volume of 300 µL of control or test solution was applied and the modifications produced at the CAM level were monitored by means of stereomicroscopy (Discovery 8 Stereomicroscope, Zeiss), registering significant images (Axio CAM 105 color, Zeiss), before application after 5 min of contact with the samples. All images were processed using Zeiss ZEN software, Gimp 2.8, and ImageJ software.
Negative control was represented by distilled water and solvent control DMSO 0.5%, and positive control by sodium lauryl sulphate (SLS) 0.5% in distillate water. The test substances were tested in concentrations of 1 µM.
Finally, the following reactions were: hemorrhage—H (blood vessel bleeding), vascular lysis—L (disintegration of blood vessels), coagulation—C (intra- or extra-vascular protein denaturizing). A variety of analysis methods may be used to assess irritancy potential of test substances. One analysis method that has been used extensively is an irritation score (IS). The formula used to generate an IS value is:(1) IS=5×301−Sec H/300+7×300−Sec L/300+9×301−Sec C/300 where: H = hemorrhage; L = vessel lysis; C = coagulation; hemorrhage time (Sec H) = onset of hemorrhage reactions on CAM (in seconds); lysis time (Sec L) = onset of vessel lysis on CAM (in seconds); coagulation time (Sec C) = onset of coagulation formation on CAM (in seconds). Means values are obtained. […] The IS values range on a scale between 0 and 21.

SNB-75 = assay: NCI-60 screening (SRB); type: cell-based, human; details: five-dose; for GI50 / CC50: Homo sapiens; for CC50: read-out: LC50 (the source's name)
[1] = Compound stability in cell culture media (TLC); details: 5 μM in DMEM and EMEM, 72 h
Protocol: Prior to this assay, compound stability in cell culture media was evaluated after 72 h, using a thin-layer chromatography (TLC)-based protocol, with the necessary modifications [57, 58].
The stability of the assessed compounds in the culture media was evaluated by thin layer chromatography (TLC), this representing a viable and easy to achieve technique for this specific endpoint [57, 58]. […] The solutions were incubated for 72 h, after which the medium was extracted in CHCl3. […] The plate was successively developed with I2 vapors, UV light, and bromocresol green to determine various additional spots corresponding to some decomposition byproducts.

RPMI cells = assay: DAPI staining, nuclear morphology; type: cell-based, human; details: 24 h
Protocol: (§1) The cells were cultured in 24-well plates at 2 × 10^5 cells/well. Two samples (compounds 4 and 6) of three different concentrations (0.1, 1, and 5 μM) and three concentrations of DMSO (0.1, 1, 5 μM) were used to stimulate the cells. The immunofluorescent staining technique was performed according to the protocol in [92]. Thus, after 24 h of stimulation, the cells were fixed by adding 4% paraformaldehyde and incubating at room temperature for one hour. After fixation, cell permeability was performed with 2% Triton X solution in phosphate-buffered saline (PBS). After 30 min of incubation at room temperature, blocking of permeabilization was performed with 0.01% Triton X solution and incubation at RT for one hour. DAPI staining was used in a concentration of 300 nM to visualize the nuclei. The cells were analyzed by fluorescence microscope at 40× magnification using CellSens V1.15 software (Olympus, Tokyo, Japan) and Image J software.

SK-MEL-28 cells = assay: DAPI staining, nuclear morphology; type: cell-based, human; details: SK-MEL28, 24 h
Protocol: as §1

BAK gene, RPMI = assay: Gene expression by qRT-PCR; type: cell-based, human; details: 1 μM, mean 2^∆∆Ct, DMSO 4.163
Source text: (§2) Apoptosis at the cellular level can be initiated through the mitochondrial intrinsic pathway, which involves the Bcl-2 family of genes that includes the anti-apoptotic Bcl-XL and Bcl-2, as well as the pro-apoptotic Bak and Bax members; the balance between the expressions of anti- and pro-apoptotic proteins ensures physiological cell death. In cancers, the alterations occurring in gene expressions due to down- or up-regulations may result in delayed apoptosis and malignant proliferation. Thus, active compounds that modify the abnormal expression of genes involved in the apoptotic process may successfully act as anticancer agents. We tested the effect of compounds 4 and 6 on the expression of anti-apoptotic (Bcl-XL and Bcl-2) and pro-apoptotic (Bak and Bax) genes (Table 4, Figure 8).
(§3) Total RNA was extracted using peqGold RNAPureTM Package (Peqlab Biotechnology GmbH, Erlangen, Germany) according to the manufacturer’s instructions, and a DS-11 spectrophotometer (DeNovix, Wilmington, DE, USA) was used to measure total concentration of RNA. Reverse transcription was performed using the Maxima® First Strand cDNA Synthesis Kit (Fermentas, St. Leon-Rot, Germany), and the mix was incubated in the Tadvanced biometra product line (Analytik Jena AG, Jena, Germany) with a thermal program of 25 °C for 10 min, 85 °C for 5 min. Quantitative real-time PCR was conducted in a Quant Studio 5 real-time PCR system, (Thermo Fisher Scientific, Inc., Waltham, MA, USA), with analysis being performed in 20 µL reactions containing Power SYBR-Green PCR Master Mix (Thermo Fisher Scientific, Inc.). Cycling conditions were: 95 °C for 10 s followed by 40 cycles of denaturing at 95 °C for 15 s, and annealing and extension at 60 °C for 1 min.

BAK gene, A375 = assay: Gene expression by qRT-PCR; type: cell-based, human; details: 1 μM, mean 2^∆∆Ct, DMSO 5.200
Source text: as §2, §3

BAX gene, SK-Mel-28 = assay: Gene expression by qRT-PCR; type: cell-based, human; details: 1 μM, mean 2^∆∆Ct, DMSO 2.086
Source text: as §2, §3

BAK gene, SK-Mel-28 = assay: Gene expression by qRT-PCR; type: cell-based, human; details: 1 μM, mean 2^∆∆Ct, DMSO 1.383
Source text: as §2, §3

BAX gene, A375 = assay: Gene expression by qRT-PCR; type: cell-based, human; details: 1 μM, mean 2^∆∆Ct, DMSO 4.063
Source text: as §2, §3

Bcl-XL gene, A375 = assay: Gene expression by qRT-PCR; type: cell-based, human; details: 1 μM, mean 2^∆∆Ct, DMSO 4.550
Source text: as §2, §3

BAX gene, RPMI = assay: Gene expression by qRT-PCR; type: cell-based, human; details: 1 μM, mean 2^∆∆Ct, DMSO 3.040
Source text: as §2, §3

Bcl-XL gene, SK-Mel-28 = assay: Gene expression by qRT-PCR; type: cell-based, human; details: 1 μM, mean 2^∆∆Ct, DMSO 4.730
Source text: as §2, §3

Bcl-2 gene, RPMI = assay: Gene expression by qRT-PCR; type: cell-based, human; details: 1 μM, mean 2^∆∆Ct, DMSO 4.063
Source text: as §2, §3

Bcl-2 gene, SK-Mel-28 = assay: Gene expression by qRT-PCR; type: cell-based, human; details: 1 μM, mean 2^∆∆Ct, DMSO 2.573
Source text: as §2, §3

Bcl-2 gene, A375 = assay: Gene expression by qRT-PCR; type: cell-based, human; details: 1 μM, mean 2^∆∆Ct, DMSO 2.216
Source text: as §2, §3

Bcl-XL gene, RPMI = assay: Gene expression by qRT-PCR; type: cell-based, human; details: 1 μM, mean 2^∆∆Ct, DMSO 18.563
Source text: as §2, §3

Row | Compound | Irritation Score (chorioallantoic membrane) | Type of Effect (chorioallantoic membrane) | GI50 (SNB-75) [nM] | CC50 (SNB-75) [µM] | TGI (SNB-75) [µM] | stability in cell culture media (TLC) [1] | nuclear morphology (DAPI) (RPMI cells; 0.1 µM) | nuclear morphology (DAPI) (RPMI cells; 1 µM) | nuclear morphology (DAPI) (RPMI cells; 5 µM (highest concentration)) | Expression of BAK gene, Mean (BAK gene, RPMI) | Expression of BAK gene, Mean (BAK gene, A375) | Expression of BAX gene, Mean (BAX gene, SK-Mel-28) | Expression of BAK gene, Mean (BAK gene, SK-Mel-28) | Expression of BAX gene, Mean (BAX gene, A375) | Expression of Bcl-XL gene, Mean (Bcl-XL gene, A375) | Expression of BAX gene, Mean (BAX gene, RPMI) | Expression of Bcl-XL gene, Mean (Bcl-XL gene, SK-Mel-28) | Expression of Bcl-2 gene, Mean (Bcl-2 gene, RPMI) | Expression of Bcl-2 gene, Mean (Bcl-2 gene, SK-Mel-28) | Expression of Bcl-2 gene, Mean (Bcl-2 gene, A375) | also measured
1 | CCN1CCN(C(=O)[C@]23CC[C@@H](C)[C@H](C)[C@H]2C2=CC[C@@H]4[C@@]5(C)CCC(=O)C(C)(C)[C@@H]5CC[C@@]4(C)[C@]2(C)CC3)CC1 [Compound 4, N-(3-oxo-ursan-12-en-28-oyl)-ethylpiperazine] | 0 | Non-irritant | 1030 | 17.2 | 3.82 | no signs of decomposition | massive chromatin condensation | visible nuclear fragmentation | blebbing of the nuclear membrane | 156.243 *** | 0.706 *** | 0.023 *** | 101.820 ** | 0.270 *** | 0.500 * | 0.460 ** | 0.086 *** | 1.483 * | 0.083 * | 0.7366 ** | nuclear morphology (DAPI) (SK-MEL-28 cells; 0.1 μM): intense condensation of the cell nuclei; nuclear morphology (DAPI) (SK-MEL-28 cells; 1 μM): chromatin condensation is accompanied by the formation of apoptotic bodies; nuclear morphology (DAPI) (SK-MEL-28 cells; 5 μM): incipient nuclear fragmentation
2 | CCN1CCN(C(=O)[C@]23CCC(C)(C)C[C@H]2C2=CC[C@@H]4[C@@]5(C)C/C(=C/c6cccnc6)C(=O)C(C)(C)[C@@H]5CC[C@@]4(C)[C@]2(C)CC3)CC1 [Compound 6] | 0 | Non-irritant | – | – | – | no signs of decomposition | nuclear fragmentation | chromatin condensation | apoptotic bodies | 11.853 ** | 0.516 *** | 0.140 *** | 91.283 *** | 0.590 *** | 0.300 | 0.640 ** | 0.003 *** | 0.236 *** | 0.083 ** | 1.166 | nuclear morphology (DAPI) (SK-MEL-28 cells; 0.1, 1, 5 μM): dose-dependent effect was recorded in terms of membrane blebbing, nuclear condensation, and fragmentation; Expression of Bcl-XL gene, Mean (Bcl-XL gene, RPMI): 1.050 *
3 | CCN1CCN(C(=O)[C@]23CC[C@@H](C)[C@H](C)[C@H]2C2=CC[C@@H]4[C@@]5(C)C/C(=C/c6cccnc6)C(=O)C(C)(C)[C@@H]5CC[C@@]4(C)[C@]2(C)CC3)CC1 [Compound 9, N-(2-{3-Pyridinylidene}-3-oxoursan-12-en-28-oyl)-ethylpiperazine] | – | – | 1570 | 39.9 | 8.91 | – | – | – | – | – | – | – | – | – | – | – | – | – | – | – | –
